Patent US20250090576A1, “METHODS FOR TREATING NONTUBERCULOUS MYCOBACTERIA DISEASES” (Microbion Corporation, priority 2022, published 2025)
Values after ≈ are worked out from the molar mass of the structure shown. Where two headings read alike, the source gives them in different places.

Key:
[1] = test system: CF patient strain DNA01715; experiment: MIC broth dilution, growth by turbidity/OD 595 nm; assay type: cell-based, M. abscessus; settings: for MIC: Mycobacteroides abscessus
Procedure: Mycobacteria strains were used to determine MICs of BisEDT and amikacin. Strains included cystic fibrosis patient isolates from National Jewish Hospital. A range of high dose to low dose of antibiotics was used to determine bacteria susceptibility. M. avium strain 104, M. avium strain 3388, and CF patient strain DNA00133 were grown to log phase (7 days) while M. abscessus strain 19977, CF patient strain DNA00703, and CF patient strain DNA01715 achieved log phase (4 days) on 7H10 middlebrook media plates supplemented with 10% OADC (Oleic acid, Albumin, Dextrose, Catalase). […] For BisEDT, two types of compound physical states were tested. First, BisEDT was solubilized in DMSO (furthermore labeled soluble BisEDT). Second, BisEDT was made in suspension to mimic in vivo studies (furthermore labeled insoluble BisEDT). […] Control tubes containing no antibiotics were also included for each antibiotic tested. Inoculums of […] bacteria for each strain was measured with optical density (O.D.) at 595 nm. 10 μl of these inoculums were added to each antibiotic tube and incubated in a shaking incubator at 37° C. and 200 rpm. Slow growing stains were measured for growth after 10 days incubation while fast growing strains were incubated for 5 days. After incubation, 100 μl from each tube was pulled and placed in a 96-well plate for O.D. reading. Turbidity determined sensitive, intermediate, or resistant bacteria.

[2] = test system: M. abscessus cystic fibrosis patient strain 00703 in THP-1 macrophages; experiment: Mycobacterial survival (CFU) in infected THP-1 macrophages; assay type: cell-based; settings: CF patient strain 00703; after 3 days; drugs at MIC
Procedure: (§1) THP-1 macrophages were differentiated with 50 ng/ml PMA for 24 hours, followed by 24 hours in media prior to infection. Differentiated THP-1 macrophages were either infected with M. avium strains or M. abscessus strains for 1 hour with an multiplicity of infection (MOI) of 5 or uninfected. Cells were washed twice, followed by 1 hour of antibiotic treatment with 200 μg/ml of amikacin to remove extracellular bacteria. After the antibiotic step, cells were washed once more and BisEDT (BIZ) or amikacin was added once to selected wells (see in vitro doses below).
(§2) The treatments included: vehicle, amikacin, Soluble BisEDT (S Biz), Insoluble BisEDT (I Biz), and amikacin+BisEDT. The time points for sample preparation were 72 h for M. abscessus strains and 4- and 7-days post infection for M. avium strains. At the indicated timepoints cell media was removed and replaced with 400 ul of 0.1% triton x-100 in H2O for lysis. Wells were pipetted 25 times to disrupt cells then diluted and plated for CFU enumeration.

[3] = test system: M. abscessus cystic fibrosis patient strain 01715 in THP-1 macrophages; experiment: as above; assay type: cell-based; settings: CF patient strain 01715; after 3 days; drugs at MIC
Procedure: as §1, §2

[4] = test system: M. abscessus strain 19977 in THP-1 macrophages; experiment: as above; assay type: cell-based; settings: after 3 days, drugs at MIC
Procedure: as §1, §2

[5] = test system: M. avium strain 104 (MAH 104) in THP-1 macrophages; experiment: as above; assay type: cell-based; settings: 4-day and 7-day, drugs at MIC
Procedure: as §1, §2

[6] = test system: M. abscessus MABS2; experiment: MIC (Table 8); assay type: cell-based; settings: Mycobacteroides abscessus
[7] = test system: M. abscessus MABS1 biofilm; experiment: MBEC assay (minimum biofilm eradication concentration); assay type: cell-based; settings: 18 h challenge
From the text: (§3) In this study the MBEC assay was followed as described in the Innovotech Procedural Manual, version 2.1 with minor modifications to assess the antibiofilm activity of the antimicrobial compounds under investigation. The MBEC value refers to the Minimum Biofilm Eradication Concentration of each antimicrobial for each strain. The MBEC value is defined as the minimum antibiotic concentration where the optical density (OD) value at recovery is less than 10% of the control OD value and there is no growth observed with visual examination of the wells.
(§4) Step 1: Inoculation. For resuscitation, all strains were streaked on TSA plates, except for the mycobacteria which were streaked on 7H10 media, from the frozen stocks, and grew overnight at 37° C. (Table 6). From the plate, one colony was picked for inoculation in organism specific medium (OSM) and grown in a shaker incubator at 37° C. at 225 RPM until mid-log phase (OD 0.2-0.8). At mid log phase the culture was diluted in OSM medium (Table 6) to an OD of 0.05. 150 μL of it were aliquoted in each corresponding well in a 96-well MBEC plate (inoculation plate). Subsequently, the MBEC plates were incubated static at 37° C. for the appropriate time for each species (Table 7). During incubation, biofilm formed on the pegs.
(§5) Step 2: Challenge. Following incubation, the peg lid with the biofilm was washed twice in PBS and placed on a second 96-well plate with 200 μl of antibiotic dilutions (challenge plate). The challenge plate was then incubated at 37° C. for 18 h to allow exposure of the biofilm to antibiotics.
(§6) Step 3: Recovery. In the final step, the peg lid (with the biofilm after treatment with the antibiotics) was washed again twice in PBS and placed on a third 96-well plate (recovery plate) with 200 μl growth medium in each well to allow growth of any bacterial cells resistant to antibiotics at any concentration. The recovery of resistant cells was assessed by an end-point measurement of the optical density at 600 nm (OD600) for each well with a plate reader (FIG. 4).

[8] = test system: M. abscessus MABS11 biofilm; experiment: as above; assay type: cell-based; settings: 18 h challenge
From the text: as §3, §4, §5, §6

[9] = test system: M. abscessus MABS2 biofilm; experiment: as above; assay type: cell-based; settings: 18 h challenge
From the text: as §3, §4, §5, §6

[10] = test system: M. abscessus MABS4 biofilm; experiment: as above; assay type: cell-based; settings: 18 h challenge
From the text: as §3, §4, §5, §6

[11] = test system: M. abscessus MABS7 biofilm; experiment: as above; assay type: cell-based; settings: 18 h challenge
From the text: as §3, §4, §5, §6

[12] = test system: M. abscessus MABS9 biofilm; experiment: as above; assay type: cell-based; settings: 18 h challenge
From the text: as §3, §4, §5, §6

With `NCC[C@H](O)C(=O)N[C@@H]1C[C@H](N)[C@@H](O[C@H]2O[C@H](CN)[C@@H](O)[C@H](O)[C@H]2O)[C@H](O)[C@H]1O[C@H]1O[C@H](CO)[C@@H](O)[C@H](N)[C@H]1O` [amikacin] the “Sensitivity phenotype (R/I/S)” value ([1]; 1 μg/mL) was “R”, the “Sensitivity phenotype (R/I/S)” value ([1]; 2 μg/mL) was “R” and the “Sensitivity phenotype (R/I/S)” value ([1]; 4 μg/mL) was “R”. The “Sensitivity phenotype (R/I/S)” value ([1]; 8 μg/mL) was “I”, the “Sensitivity phenotype (R/I/S)” value ([1]; 16 μg/mL) was “S” and the “Sensitivity phenotype (R/I/S)” value ([1]; 32 μg/mL) was “S”. The “Sensitivity phenotype (R/I/S)” value ([1]; 64 μg/mL) was “S”, the “Sensitivity phenotype (R/I/S)” value ([1]; 128 μg/mL) was “S” and the MIC ([1]; M. abscessus strain 01715 (Table 4), read-out: MIC determined for the strain, used for treatment of infected macrophages) was 16 µg/mL (≈ 27.3 µM). For the same molecule, the MIC ([1]; M. abscessus strain from patient 01715, read-out: MIC) was 16 µg/mL (≈ 27.3 µM), the “mycobacterial survival (CFU, bacterial load) in THP-1 macrophages, in words” value (shortened to “mycobacterial survival”) [2] was “bacteriostatic” and the “mycobacterial survival” value [3] was “bacteriostatic”. The “mycobacterial survival” value [4] was “somewhat reduced CFU counts from initial infection rates, but the difference was not significant”, the “mycobacterial survival” value [5] was “greatly reduced the bacteria load” and the MIC [6] was 32 µg/mL (≈ 54.6 µM). It also gave an MBEC [7] of over 128 µg/mL, an MBEC [8] of over 16 µg/mL and an MBEC [9] of over 512 µg/mL. It also gave an MBEC [10] of 8 µg/mL, an MBEC ([10]; listed as Amikacin) of under 8 µg/mL and an MBEC [11] of over 16 µg/mL. It also gave an MBEC [12] of over 64 µg/mL.
